{
  "source": "patent US10016515B2",
  "about": "“DMA, a bis-benzimidazole, confers radioprotection to the intestine via Akt/NFκB dual pathway activation” (Jawaharlal Nehru University, priority 2016, dated 2018)",
  "assay": "Tissue bio-distribution and tissue pharmacokinetics of DMA",
  "format": "in vivo, mouse",
  "details": "for concentration at 2 h / concentration at 4 h / concentration at 6 h / concentration at 16 h / concentration at 24 h / concentration at 1 h: Balb/c, mouse",
  "experimental": "Tissue samples were collected from the same mice from which blood samples were collected in both doses of DMA. Lung, liver, kidney, intestine, heart, spleen, brain were dissected and rinsed with phosphate buffer saline (PBS) and dried on blotting paper. 100 mg of tissue sample was homogenized for 20 s in chilled acetronitrile and water and further 700 μl chilled acetronitrile was added. The sample was centrifuged at 14000 rpm for 10 min and clear supernatant was collected for analysis on HPLC-MS/MS system.\nA standard DMA calibration from 1-1000 ng/ml with internal standard (20 ng/ml) was quantified. Sample analysis was performed on positive ionization mode LC-MS/MS with multiple reactions monitoring (MRM, m/z Q1/Q3) of DMA (m/z 235.1/412.0, retention time (RT) 5.3 min) and internal standard (m/z 227.1/396.0, RT 6.5 min) (Agilent 6410 series). A gradient method was employed to analyze the plasma samples using mobile phase A (0.1% formic acid in water) and mobile phase B (methanol). The B % was set as 30 (0 min), 90 (10-14 min), 30 (14-24 min) with flow rate of 0.3 ml/min. An injection volume of 10 μl was used for analysis.\nPeak tissue concentration (Cmax) of DMA and time to reach the Cmax (tmax) were read directly from the raw data by visual examination of mean tissue concentration-time profile. The tissue concentration-time data following oral dose were subjected to one-, two- and three-compartmental models using WinNonlin program (version 6.3; Certara Inc, Missouri, USA) to calculate the pharmacokinetic parameters. The pharmacokinetic models were compared according to maximal correlation between observed and predicted concentration, minimal sum of squared residuals, Akaike Information Criterion (AIC) and Schwarz Bayesian Criterion (SBC). However, the tissue concentration-time data following intravenous administration were subjected to non-compartmental approach.",
  "key": {"[1]": {"details": "intestine, iv, i.v. 50 mg/kg, read-out: Tissue DMA concentration, Intestine"}, "[2]": {"details": "intestine, Oral 100 mg/kg, read-out: Tissue DMA concentration, Intestine"}, "[3]": {"details": "kidney, iv, i.v. 50 mg/kg, read-out: Tissue DMA concentration, Kidney"}},
  "note": "Like-named read-outs stand apart in the source and are kept apart here.",
  "data": [
    {"smiles": "COc1ccc(-c2nc3cc(-c4nc5cc(N6CCN(C)CC6)ccc5[nH]4)ccc3[nH]2)cc1OC", "note": "[DMA, 5-(4-methylpiperazin-1-yl)-2-[2′-(3,4-dimethoxyphenyl)-5′-benzimidazolyl]benzimidazole]", "values": [
      {"measurement": "Concentration achieved in intestine", "setting": "50 mg/kg i.v.", "result": 1260, "unit": "µg/g"},
      {"measurement": "Small intestine concentration, i.v. as compared to oral route", "setting": "50 mg/kg i.v. vs 100 mg/kg oral", "result": 11.88, "unit": "fold"},
      {"measurement": "AUC, Kidney", "setting": "50 mg/kg intravenous", "result": 945577.2, "unit": "ng·h/g"},
      {"measurement": "AUC, Liver", "setting": "50 mg/kg intravenous", "result": 889040, "unit": "ng·h/g"},
      {"measurement": "AUC, Lung", "setting": "50 mg/kg intravenous", "result": 2674622.2, "unit": "ng·h/g"},
      {"measurement": "AUC, Small Intestine", "setting": "50 mg/kg intravenous", "result": 220072.6, "unit": "ng·h/g"},
      {"measurement": "AUC, Spleen", "setting": "50 mg/kg intravenous", "result": 145191, "unit": "ng·h/g"},
      {"measurement": "C1 hr, Kidney", "setting": "50 mg/kg intravenous", "result": 14900, "unit": "ng/g"},
      {"measurement": "C1 hr, Liver", "setting": "50 mg/kg intravenous", "result": 41600, "unit": "ng/g"},
      {"measurement": "C1 hr, Lung", "setting": "50 mg/kg intravenous", "result": 109000, "unit": "ng/g"},
      {"measurement": "C1 hr, Small Intestine", "setting": "50 mg/kg intravenous", "result": 1260000, "unit": "ng/g"},
      {"measurement": "Clearance, Kidney", "setting": "50 mg/kg intravenous", "result": 17.9, "unit": "g/h/kg"},
      {"measurement": "Clearance, Liver", "setting": "50 mg/kg intravenous", "result": 39.5, "unit": "g/h/kg"},
      {"measurement": "Clearance, Small Intestine", "setting": "50 mg/kg intravenous", "result": 15.0, "unit": "g/h/kg"},
      {"measurement": "Clearance, Spleen", "setting": "50 mg/kg intravenous", "result": 89.3, "unit": "g/h/kg"},
      {"measurement": "Vd, Kidney", "setting": "50 mg/kg intravenous", "result": 1944.8, "unit": "g/kg"},
      {"measurement": "Vd, Liver", "setting": "50 mg/kg intravenous", "result": 668.7, "unit": "g/kg"},
      {"measurement": "Vd, Lung", "setting": "50 mg/kg intravenous", "result": 552.1, "unit": "g/kg"},
      {"measurement": "Vd, Small Intestine", "setting": "50 mg/kg intravenous", "result": 40360.3, "unit": "g/kg"},
      {"measurement": "Vd, Spleen", "setting": "50 mg/kg intravenous", "result": 3857.9, "unit": "g/kg"},
      {"measurement": "Vss, Kidney", "setting": "50 mg/kg intravenous", "result": 1623.5, "unit": "g/kg"},
      {"measurement": "Vss, Liver", "setting": "50 mg/kg intravenous", "result": 496.11, "unit": "g/kg"},
      {"measurement": "Vss, Lung", "setting": "50 mg/kg intravenous", "result": 10.72, "unit": "g/kg"},
      {"measurement": "Vss, Small Intestine", "setting": "50 mg/kg intravenous", "result": 4.9, "unit": "g/kg"},
      {"measurement": "Vss, Spleen", "setting": "50 mg/kg intravenous", "result": 4114.6, "unit": "g/kg"},
      {"measurement": "AUC, Kidney", "setting": "100 mg/kg oral dose", "result": 10874.29, "unit": "ng·h/g"},
      {"measurement": "AUC, Liver", "setting": "100 mg/kg oral dose", "result": 20717.3, "unit": "ng·h/g"},
      {"measurement": "AUC, Small Intestine", "setting": "100 mg/kg oral dose", "result": 361353.4, "unit": "ng·h/g"},
      {"measurement": "AUC, Spleen", "setting": "100 mg/kg oral dose", "result": 8353.819, "unit": "ng·h/g"},
      {"measurement": "Cl/F, Kidney", "setting": "100 mg/kg oral dose", "result": 9190, "unit": "g/h/kg"},
      {"measurement": "Cl/F, Liver", "setting": "100 mg/kg oral dose", "result": 4000, "unit": "g/h/kg"},
      {"measurement": "Cl/F, Small Intestine", "setting": "100 mg/kg oral dose", "result": 277, "unit": "g/h/kg"},
      {"measurement": "Cl/F, Spleen", "setting": "100 mg/kg oral dose", "result": 11000, "unit": "g/h/kg"},
      {"measurement": "Cmax, Kidney", "setting": "100 mg/kg oral dose", "result": 1530, "unit": "ng/g"},
      {"measurement": "Cmax, Liver", "setting": "100 mg/kg oral dose", "result": 2230, "unit": "ng/g"},
      {"measurement": "Maximum concentration in small intestine", "setting": "100 mg/kg oral, at 2 h", "result": 106, "unit": "µg/g"},
      {"measurement": "Maximum concentration in spleen", "setting": "100 mg/kg oral, at 2 h", "result": 1.31, "unit": "µg/g"},
      {"measurement": "Maximum concentration in kidney", "setting": "100 mg/kg oral, at 4 h", "result": 1.53, "unit": "µg/g"},
      {"measurement": "Maximum concentration in liver", "setting": "100 mg/kg oral, at 4 h", "result": 2.23, "unit": "µg/g"},
      {"measurement": "concentration at 2 h", "setting": "[1]", "result": 70400, "unit": "ng/g"},
      {"measurement": "concentration at 4 h", "setting": "[1]", "result": 59200, "unit": "ng/g"},
      {"measurement": "concentration at 6 h", "setting": "[1]", "result": 29700, "unit": "ng/g"},
      {"measurement": "concentration at 16 h", "setting": "[1]", "result": 2530, "unit": "ng/g"},
      {"measurement": "concentration at 24 h", "setting": "[1]", "result": 1710, "unit": "ng/g"},
      {"measurement": "concentration at 1 h", "setting": "intestine, Oral 100 mg/kg, 1 h, read-out: Tissue DMA concentration, Intestine", "result": 675, "unit": "ng/g"},
      {"measurement": "concentration at 2 h", "setting": "[2]", "result": 106000, "unit": "ng/g"},
      {"measurement": "concentration at 4 h", "setting": "[2]", "result": 30200, "unit": "ng/g"},
      {"measurement": "concentration at 6 h", "setting": "[2]", "result": 28700, "unit": "ng/g"},
      {"measurement": "concentration at 16 h", "setting": "[2]", "result": 612, "unit": "ng/g"},
      {"measurement": "concentration at 24 h", "setting": "[2]", "result": 410, "unit": "ng/g"},
      {"measurement": "concentration at 1 h", "setting": "kidney, intravenous, 50 mg/kg i.v., read-out: Concentration achieved in kidney", "result": 14900, "unit": "ng/g"},
      {"measurement": "concentration at 1 h", "setting": "kidney, iv, i.v. 50 mg/kg, 1 h, read-out: Tissue DMA concentration, Kidney", "result": 14900, "unit": "ng/g"},
      {"measurement": "concentration at 2 h", "setting": "[3]", "result": 8370, "unit": "ng/g"},
      {"measurement": "concentration at 4 h", "setting": "[3]", "result": 9080, "unit": "ng/g"},
      {"measurement": "concentration at 6 h", "setting": "[3]", "result": 707, "unit": "ng/g"},
      {"measurement": "concentration at 16 h", "setting": "[3]", "result": 263, "unit": "ng/g"}
    ]}
  ]
}
